Measured values published in US4210581A, “Organic compounds” (Sandoz Ltd., priority 1975, dated 1980).

Columns and labels:
Aspergillus Niger = test: Activity against Aspergillus Niger; format: cell-based
From the text: Cyclosporin C may be isolated by chromatography as a compound active against Aspergillus Niger and having greater polarity than Cyclosporins A and B (designated S7481/F-1 and S7481/F-2 in the above mentioned D.O.S.).

[1] = tested on: oxazolone skin hypersensitivity swelling; test: Oxazolone skin hypersensitivity reaction; format: in vivo; conditions: mice, doses of 70 to 200 mg/kg
[2] = tested on: hemolytic plaque-forming cells; test: Jerne test (local hemolysis in gel); format: in vivo; conditions: mice, 50 to 200 mg/kg per os
From the text: (i) in the Jerne test the effect of the substance on local hemolysis in gel is observed.

[3] = tested on: antibodies formed against sheep erythrocytes; test: Hemagglutination test (HAT); format: in vivo; conditions: mice, 100 to 200 mg/kg per os
Experimental: (ii) in the hemagglutination test (HAT) in mice a stimulation of the antibodies formed against sheep erythrocytes is obtained at a dose of from 100 to 200 mg/kg per os. animal body weight;

[4] = Solubility at room temperature; format: physicochemical
[5] = tested on: skin grafts in H-2 histoincompatible mice; test: Skin transplantation (allograft) test; format: in vivo; conditions: 100 to 200 mg/kg per os
[6] = tested on: paralysis induced by experimentally induced nerve tissue damages; test: Experimental allergic encephalomyelitis (EAE) test; format: in vivo; conditions: rats, between 50 and 100 mg/kg/day
[7] = tested on: Freund adjuvant arthritis swellings; test: Freund adjuvant arthritis latent period test; format: in vivo; conditions: rats, p.o., about 1 to about 10 mg/kg

C/C=C/C[C@@H](C)[C@@H](O)[C@H]1C(=O)N[C@@H]([C@@H](C)O)C(=O)N(C)CC(=O)N(C)[C@@H](CC(C)C)C(=O)N[C@@H](C(C)C)C(=O)N(C)[C@@H](CC(C)C)C(=O)N[C@@H](C)C(=O)N[C@H](C)C(=O)N(C)[C@@H](CC(C)C)C(=O)N(C)[C@@H](CC(C)C)C(=O)N(C)[C@@H](C(C)C)C(=O)N1C [Cyclosporin C, cyclosporin C]
activity against Aspergillus Niger (Aspergillus Niger): active

dihydrocyclosporin C
inhibition of swelling [1]: significant and pronounced inhibition
stimulation of hemolytic plaque-forming cells (immunoglobulin M and G2a antibodies) [2]: significant stimulation
stimulation of the antibodies formed against sheep erythrocytes [3]: stimulation
solubility in organic solvents ([4]; benzene, dichloromethane, chloroform, ethyl acetate, acetone, ethanol and methanol): easily soluble
solubility in water ([4]; water): difficulty soluble
prolongation in the period of survival of skin grafts [5]: significant prolongation
incidence of paralysis [6]: reduced significantly
inhibition of swellings [7]: inhibition of swellings
